Structures are written as SMILES.

The source of these data is article PMC5879690 (Proceedings of the National Academy of Sciences of the …, 2018).

For the experiment, the target named is indoleamine 2,3-dioxygenase (IDO1) (Homo sapiens, UniProt P14902). The experiment can be described thus: enzyme activity assay, N-formylkynurenine production. Format: biochemical.
Sequence of indoleamine 2,3-dioxygenase (IDO1) (P14902 whole entry): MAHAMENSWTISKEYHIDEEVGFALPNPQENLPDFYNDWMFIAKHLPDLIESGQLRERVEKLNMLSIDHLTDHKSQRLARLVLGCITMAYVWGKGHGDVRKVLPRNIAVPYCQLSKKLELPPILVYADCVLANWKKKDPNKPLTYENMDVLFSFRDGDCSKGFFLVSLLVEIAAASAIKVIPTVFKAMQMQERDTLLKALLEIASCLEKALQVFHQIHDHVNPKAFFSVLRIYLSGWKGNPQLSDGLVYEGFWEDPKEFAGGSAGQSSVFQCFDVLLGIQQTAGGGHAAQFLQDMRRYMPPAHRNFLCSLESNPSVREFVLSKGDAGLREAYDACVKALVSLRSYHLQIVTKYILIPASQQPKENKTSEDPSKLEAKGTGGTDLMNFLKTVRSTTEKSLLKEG

Take `N[C@H](Cc1c[nH]c2ccccc12)C(=O)O` [D-tryptophan]: the “enzyme activity assay, N-formylkynurenine production” value is on record as “D-tryptophan was used as the substrate, which unlike L-tryptophan, does not cause substrate inhibition”.
